Measured values: patent US6677492B2, “Fluoroether compositions and methods for inhibiting their degradation in the presence of a Lewis acid” (Abbott Laboratories, priority 1997, dated 2004)

Assays:
Format in all cases: physicochemical
[1] = Degradation of sevoflurane with activated alumina at three moisture levels, gas chromatography; settings: 50 mg aluminum oxide; 20, 100, 260 ppm water; 60° C., 22 hours; FIG. 1
Protocol: Type III glass consists mainly of silicon dioxide, calcium oxide, sodium oxide and aluminum oxide. Aluminum oxide is a known Lewis acid The glass matrix is normally inert to sevoflurane. However, under certain conditions (anhydrous, acidic), the glass surface can be attacked or altered, exposing sevoflurane to active Lewis acid sites such as aluminum oxide.
The effect of water on the degradation of sevoflurane was studied by adding various amounts of activated alumina to 20 ml of sevoflurane containing the following three levels of moisture: 1) 20 ppm water—measured water, no additional water added; 2) 100 ppm—spiked; and 3) 260 ppm water—spiked.
It will be appreciated that 20 ppm Water is equivalent to […] w/w Water. The samples were placed at 60° C. and analyzed by gas chromatography after 22 hours.

[2] = Degradation of sevoflurane in ampules by heat with and without added water; settings: Type I clear ampule autoclaved at 119° C. for three hours
Protocol: Approximately 20 mL of sevoflurane was added to a 50 mL Type I clear ampule and approximately 20 mL of sevoflurane and 1300 ppm of water was added to a second ampule. Both ampules were flame-sealed and then autoclaved at 119° C. for three hours. The contents of the two ampules were then analyzed by gas chromatography.

[3] = Degradation of sevoflurane in ampules, water-spiked studies (109 ppm to 951 ppm), autoclaved; settings: ampules in Set A and Set B, autoclaved at 119° C. for three hours
Protocol: Type I clear glass ampules were used to study the effect of various levels of water in inhibiting the degradation of sevoflurane. Approximately 20 mL of sevoflurane and different levels of water ranging from about 109 ppm to about 951 ppm were added to each ampule. The ampules were then sealed. A total of ten ampules were filled with sevoflurane and varying amounts of water. Five of the ampules were included in Set A and the other five ampules were included in Set B. The ampules were then autoclaved at 119° C. for three hours. Samples in Set A were placed on a mechanical shaker overnight to allow the moisture to coat the glass surface. Samples in Set B were prepared without equilibrating the water with the glass surface. Several control samples were also prepared. Two non-autoclaved ampules (Control Ampule 1 and Control Ampule 2) and a bottle (Control bottle) were each filled with 20 mL of sevoflurane. No water was added to any of the control samples. Also, the controls samples were not shaken overnight. The levels of hexafluoroisopropanol (HFIP) and total degradants (including methyleneglycol bishexafluoroisopropyl ether, dimethyleneglycol bishexafluoroisopropyl ether, methyleneglycol fluoromethyl hexafluoro isopropyl ether) were measured by gas chromatography.

[4] = Degradation of water-spiked sevoflurane in ampules at 60° C. or 40° C.
Protocol: Type I clear glass ampules were employed to study the effect of various levels of water and temperature in inhibiting the degradation of sevoflurane. Approximately 20 mL of sevoflurane and different levels of water ranging from about 109 ppm to about 951 ppm were added to each ampule. The ampules were then flame-sealed. To accelerate the degradation process, samples from each moisture level were placed at two heating conditions. Samples were placed on 60° C. stability station for 144 hours or placed on a 40° C. stability station for 200 hours. The resulting sevoflurane in each of the samples was analyzed by gas chromatography and pH. Hexafluoroisopropyl alcohol (HFIP) and the total degradants of sevoflurane were measured.

[5] = Sevoflurane degradation in activated Type III amber glass bottles, 20 ppm vs 400 ppm water
Protocol: The extent of the degradation of sevoflurane in each of the bottles from Example 5 were quantified by gas chromatography. The ten bottles were divided into two groups, the Control Sevo Group (containing bottles 2, 3, 5, 7, 8) and the Study Sevo Group (containing Bottles 1, 4, 6, 9, 10).
All ten bottles were re-rinsed several times with non-degraded sevoflurane containing about 20 ppm of water. For the five Control Sevo Group bottles, 100 mL of sevoflurane containing about 20 ppm of water was added to each bottle. For the five Study Group bottles, 100 mL of sevoflurane containing about 400 ppm of water (spiked) was added to each bottle.
Gas chromatography for all samples was performed at time zero and after heating at 50° C. for 18 hours. Hexafluoroisopropyl alcohol (HFIP), dimethyleneglycol bishexafluoroisopropyl ether (P2) and total degradants were measured.

[6] = Sevoflurane degradation in activated Type III amber glass bottles pre-treated with water-saturated sevoflurane; settings: activated glass surface treated with water saturated-sevoflurane prior to heating
Protocol: Sevoflurane was decanted from the five bottles of the Study Sevo Group from Example 6. Each bottle was rinsed thoroughly with fresh sevoflurane. Approximately 125 mL of water-saturated sevoflurane was then put into each bottle. The five bottles were then placed on a mechanical roller for approximately two hours to allow the water to coat the activated glass surfaces. The water-saturated sevoflurane was then drained form each bottle and replaced by 100 mL of sevoflurane containing 400 (spiked) ppm of water. Gas chromatography analysis for all samples was performed after heating at 50° C. for 18 hours, 36 hours, and 178 hours. bishexafluoroisopropyl ether (P2) and total degradants were measured.

FCOC(C(F)(F)F)C(F)(F)F [sevoflurane, fluoromethyl-2,2,2-trifluoro-1-(trifuoromethyl)ethyl ether]
degradation of sevoflurane [1]: decreases with increasing amounts of water | degradation of sevoflurane ([2]; first ampule, no water added, FIG. 2): degraded | degradation of sevoflurane ([2]; second ampule, 1300 ppm of water, FIG. 3): did not degrade | water sufficient to inhibit the degradation of sevoflurane [3]: at least 595 ppm | water levels that inhibit degradation of sevoflurane ([4]; 40° C. for 200 hours): higher than 206 ppm | water levels that inhibit degradation of sevoflurane ([4]; 60° C. for 144 hours or longer): higher than 303 ppm | HFIP concentration ([5]; Study Sevo Group (400 ppm water)): quite high | amounts of degradants P2 and S1 ([5]; Study Sevo Group (400 ppm water) compared with Control Group (20 ppm water)): much less | degradation of sevoflurane ([5]; Study Sevo Group (400 ppm water), 50° C. for 18 hours): significantly reduced | degradation of sevoflurane (degradant S1) ([5]; addition of 400 ppm of water, activated amber glass bottles, Examples 5 and 6, FIG. 5): inhibited | degradation of sevoflurane (degradant P2) ([5]; addition of 400 ppm of water, activated type III amber glass bottles, Examples 5 and 6, FIG. 4): inhibited | degradation of sevoflurane ([5]; zero hour, compared to zero-hour results in Table 4): no significant degradation | degradation of sevoflurane [6]: greatly inhibited
